# PMC10635324, “A Multi-Site Phase I Trial of Veliparib with Standard Radiation and Temozolomide in Patients with Newly Diagnosed Glioblastoma Multiforme (GBM)” (Research Square, 2023)
# “And” between values parts separate entries of the source, which are not always exact repeats. Identical values can stand only once. Like-named read-outs stand apart in the source and are kept apart here.
# Assays:
# [1] = parameters: method as in PMID 17473206; conditions: rodent model; cited from earlier work
# [2] = parameters: method as in PMID 26202595; conditions: cited from earlier work
# [3] = parameters: method as in PMID 28243955, PMID 28497258, PMID 30456480, PMID 27503200, PMID 21795476; conditions: cited from earlier work
# [4] = parameters: method as in PMID 19364967; conditions: phase 0 clinical trial, oral; cited from earlier work
# [5] = parameters: method as in PMID 17473206; conditions: preclinical, oral; cited from earlier work
# [6] = test system: patients with MGMT methylation; parameters: method as in doi:10.1200/JCO.2022.40.16_suppl.2001; conditions: cited from earlier work
# [7] = test system: patients with newly diagnosed glioblastoma; assay: Survival from the date of study enrollment; type: in vivo; conditions: all patients on study
# Source text: All subjects were followed until death, and survival from the date of study enrollment was reported to evaluate for any unexpected adverse results.
# [8] = Plasma pharmacokinetics of veliparib, LC-MS/MS, noncompartmental analysis; type: in vivo, patients; conditions: for Cmax: human, plasma, oral, 10 mg, read-out: Cmax, maximum drug concentration in plasma
# Description: Patients received a single dose of veliparib one day prior to starting combination therapy with TMZ or RT/TMZ for PK testing after the first single dose as described below. Patients without disease progression, as evaluated by MRI 10-weeks after the initiation of veliparib therapy, received up to four maintenance cycles of the same dose of veliparib in the initial safety cohort or six cycles in phase I veliparib/RT/TMZ cohort. Veliparib was to be given BID for 7 days and TMZ 150–200 mg/m^2 QD for 5 days, repeated every 28 days, with an imaging evaluation after completing every second maintenance cycle.
# Plasma samples were collected to define plasma concentration-time profiles. Samples were collected shortly before dosing and at 0.25, 0.5, 1, 2, 3, 4, 6, 8, and 24 hours after the first dose of six weeks of TMZ and again after achieving steady-state conditions on any day of week 3 of the six weeks (omitting the 24 hour specimen). Samples were analyzed by liquid chromatography-mass spectrometry (LC-MS)/mass spectrometry (MS), Agilent 410B Triple Quadrupole LC/MS system (Agilent Technologies, Inc., Santa Clara, CA).
# The plasma concentration-time data for veliparib was analyzed by noncompartmental methods using model 200 for extravascular input in WinNonlin Professional version 5.0.1. Samples with concentrations below the LLQ of the assay were excluded. The maximum concentration of the drug achieved in plasma (Cmax) and the time that it occurred (tmax) were based upon the observed values following a given dose. Area under the plasma concentration-time curves for 8 h (AUC8) and 24 h (AUC24) after dosing were estimated using the log- linear trapezoidal algorithm. Routines provided in the Data Analysis ToolPak of Microsoft Excel 2003 (11.8231.8221) SP3, Professional Edition (Redmond, WA), were used for the descriptive statistics and statistical tests. Arithmetic averages and standard deviations were calculated for the time of the maximum drug concentration in plasma (tmax). Geometric means were calculated for all other pharmacokinetic variables. The jackknife technique was used to estimate the standard deviation of geometric means.
# brain metastasis = test system: brain metastasis; parameters: method as in PMID 25682091; conditions: Veliparib 40 mg BID or 200 mg BID added to whole brain radiotherapy; cited from earlier work
# [9] = test system: patients with newly diagnosed glioblastoma; assay: Phase I dose-limiting toxicities / adverse events (CTCAE v.3.0); type: in vivo
# Description: This was an open-label, multi-center, phase 1 study. The maximum tolerated dose (MTD) was a dose producing a dose-limiting-toxicity (DLT) rate at 33% or less. A modified 3 + 3 design with 6 patients per dose cohort was used due to 10 weeks long safety evaluation period that potentially 40–50% patient might drop-out study for early disease progression.
# The initial safety group of up to 6 patients included patients who had recently completed standard concurrent RT/TMZ) were then treated with one cycle of low-dose veliparib 10 mg BID along with 6 weeks of once-a day (QD) temozolomide 75 mg/m2/d (no RT). Once this one cycle was complete, patients were permitted to transition to monthly cycles of standard adjuvant temozolomide 150–200 mg/m2/d for five consecutive days each month.
# If safety was confirmed, then the phase I component including radiotherapy would proceed enrolling cohorts of 6 patients to pre-specified escalating dose levels of daily veliparib, ranging from 10 mg BID to 100 mg twice-daily BID daily along with TMZ (75 mg/m^2/d) for 6 weeks in conjunction with standard radiation 60 Gy in 30 fractions.The protocol specified that if excessive toxicity occurred, de-escalation could be introduced by joint decision of study PI, sponsor, and ABTC leadership to a choice of veliparib 10 mg daily, 10 mg every other day or 10 mg BID 1 week on/1 week off for the 6-week period.
# DLTs were events considered possible or probably related to veliparib alone, veliparibib/TMZ or Veliparib/RT per CTCAE v.3.0 including: ≥ grade 3 nonhematological toxicities not resolving with anticonvulsants or steroid treatment excluding grade 3 nausea and dermatitis. Hematologic toxicity was considered dose limiting if there was 1) ANC ≤ 500/mm^3; 2) Platelets ≤ 25,000/mm^3; 3) Grade 3 toxicity that prevents administration of > 75% of the planned temozolomide doses for the first cycle; 4) interruption of treatment for > 14 days. All subjects were monitored for safety throughout the trial.
# [10] = Single dose 10 mg Veliparib, n=16
# [11] = Steady-state 10 mg BID Veliparib, week 3, n=18
smiles,measurement,setting,value
C[C@]1(c2nc3c(C(N)=O)cccc3[nH]2)CCCN1 [Veliparib],Crossing of the blood brain barrier,[1],cross the blood brain barrier
same,Effect of veliparib coadministration on TMZ plasma exposures,[2],does not affect
same,Effect of TMZ co-administration on the clearance of veliparib,[3],no effect
same,Bioavailability,[4],good bioavailability
same,Bioavailability,[5],good bioavailability
same,"Hematologic toxicity (neutropenia, thrombocytopenia, and anemia)",[6]; veliparib 40 mg BID each day of standard adjuvant TMZ (days 1–5) after concurrent RT/TMZ,increased but acceptable hematologic toxicity
same,Survival benefit,[6]; veliparib 40 mg BID each day of standard adjuvant TMZ (days 1–5),without survival benefit
same,Survival at 2 years,[7],25%
same,Median survival,[7]; 95%CI: 8–16 months,13 months
same,Accumulation for BID dosing,[8]; BID dosing,56%
same,"CL/F, apparent oral clearance","[8]; Single (initial) dose 10 mg Veliparib, n=16",27.0 ± 9.0 L/h and 27.0 ± 9.2 L/h
same,"t1/2,z apparent terminal phase half-life",[8]; [10],5.8 ± 0.9 h
same,"Cmin, minimum drug concentration in plasma","[8]; Single dose 10 mg Veliparib, n=16, geometric mean ± SD",2.5 ± 1.3 ng/mL
same,"CL/F, apparent oral clearance","[8]; Steady-state 10 mg BID Veliparib, n=18",23.5 ± 10.4 L/h
same,"Cmin, minimum drug concentration in plasma",[8]; [11],18.4 ± 10.4 ng/mL
same,Accumulation,[8]; Steady-state 10 mg BID dosing,56%
same,Cmax,[8]; [10],50.3 ± 19 ng/mL
same,Cmax,[8]; [11],66.1 ± 28.7 ng/mL
same,Peak and trough concentrations throughout six weeks of daily dosing,[8]; veliparib 20 mg BID concurrently with daily temozolomide (so in the source),remains stable
same,Adverse events compared with placebo,brain metastasis,no increase in adverse events
same,"Patients with platelets <25,000/mm^3","[9]; 12 patients, veliparib 10 mg BID + TMZ + RT",3 patients
same,Anemia,"[9]; human, in vivo, 6 weeks",1 (4.2) n (%)
same,"Any adverse event (dose limiting, possibly related)","[9]; human, in vivo, 6 weeks",11 (45.8) n (%)
same,Febrile neutropenia,"[9]; human, in vivo, 6 weeks",1 (4.2) n (%)
same,Neutropenia,"[9]; human, in vivo, 6 weeks",2 (8.3) n (%)
same,Pancytopenia,"[9]; human, in vivo, 6 weeks",1 (4.2) n (%)
same,Subjects with ≥ 1 AE (Blood and Lymphatic Systemic Disorders),"[9]; human, in vivo, 6 weeks",9 (37.5) n (%)
same,Thrombocytopenia,"[9]; human, in vivo, 6 weeks",7 (29.2) n (%)
same,Number of dose limiting toxicities (DLT),[9]; in vivo,one
same,Tolerable dose (maximum tolerated dose),"[9]; with TMZ and six weeks of standard radiation, even with 50% dose reductions",a tolerable dose of veliparib could not be found
